Measured values published in ChEMBL document CHEMBL5729355, “N/O-linked Degrons and Degronimers for protein degradation” (2022).

Target: Protein cereblon/DNA damage-binding protein 1 (Homo sapiens, UniProt Q96SW2)
Assay: Fluorescence Polarization (FP) Assay for Screening Compound Ligand Binders of CRBN-DDM: Measuring compound ligand binding to CRBN-DDB1 was carried out using an established sensitive and quantitative in vitro fluorescence polarization (FP) based binding assay. (See, I. J. Enyedy et al, J. Med. Chem., 44: 3134324, 2001). Compounds were dispensed from serially diluted DMSO stock into black 384-well compatible fluorescence polarization plates using an Echo acoustic dispenser. Compound binding to CRBN-DDB1 was measured by displacement of either a (−)-Thalidomide-Alexa Fluor® or Pornalidomide-fluorescein conjugated probe dye. A 20 μL mixture containing 400 nM CRBN-DDB1 and 5 nM probe dye in 50 mM Hepes, pH 7.4, 200 mM NaCl, 1% DMSO and 0.05% pluronic acid-127 acid was added to wells containing compound and incubated at room temperature for 60 min. Matching control wells excluding CRBN-DDB1 were used to correct for background fluorescence. Plates were read on an Envision plate reader with appropriate FP filter sets. […]
Format: protein assay

Chain of Protein cereblon/DNA damage-binding protein 1 (Q96SW2 whole entry): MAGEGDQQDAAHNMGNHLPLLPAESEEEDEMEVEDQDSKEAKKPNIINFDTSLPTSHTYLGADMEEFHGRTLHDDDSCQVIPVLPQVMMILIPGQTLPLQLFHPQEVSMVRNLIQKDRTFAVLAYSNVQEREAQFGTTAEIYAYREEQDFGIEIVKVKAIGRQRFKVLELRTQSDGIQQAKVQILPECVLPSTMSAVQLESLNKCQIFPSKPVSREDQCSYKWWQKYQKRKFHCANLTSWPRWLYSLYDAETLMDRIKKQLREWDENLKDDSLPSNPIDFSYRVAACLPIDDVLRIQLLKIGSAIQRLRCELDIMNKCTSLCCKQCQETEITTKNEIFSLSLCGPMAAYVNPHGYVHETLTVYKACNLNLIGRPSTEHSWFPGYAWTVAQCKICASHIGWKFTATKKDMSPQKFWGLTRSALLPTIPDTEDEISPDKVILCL
Chain of Protein cereblon/DNA damage-binding protein 1 (Q16531 whole entry, further chain): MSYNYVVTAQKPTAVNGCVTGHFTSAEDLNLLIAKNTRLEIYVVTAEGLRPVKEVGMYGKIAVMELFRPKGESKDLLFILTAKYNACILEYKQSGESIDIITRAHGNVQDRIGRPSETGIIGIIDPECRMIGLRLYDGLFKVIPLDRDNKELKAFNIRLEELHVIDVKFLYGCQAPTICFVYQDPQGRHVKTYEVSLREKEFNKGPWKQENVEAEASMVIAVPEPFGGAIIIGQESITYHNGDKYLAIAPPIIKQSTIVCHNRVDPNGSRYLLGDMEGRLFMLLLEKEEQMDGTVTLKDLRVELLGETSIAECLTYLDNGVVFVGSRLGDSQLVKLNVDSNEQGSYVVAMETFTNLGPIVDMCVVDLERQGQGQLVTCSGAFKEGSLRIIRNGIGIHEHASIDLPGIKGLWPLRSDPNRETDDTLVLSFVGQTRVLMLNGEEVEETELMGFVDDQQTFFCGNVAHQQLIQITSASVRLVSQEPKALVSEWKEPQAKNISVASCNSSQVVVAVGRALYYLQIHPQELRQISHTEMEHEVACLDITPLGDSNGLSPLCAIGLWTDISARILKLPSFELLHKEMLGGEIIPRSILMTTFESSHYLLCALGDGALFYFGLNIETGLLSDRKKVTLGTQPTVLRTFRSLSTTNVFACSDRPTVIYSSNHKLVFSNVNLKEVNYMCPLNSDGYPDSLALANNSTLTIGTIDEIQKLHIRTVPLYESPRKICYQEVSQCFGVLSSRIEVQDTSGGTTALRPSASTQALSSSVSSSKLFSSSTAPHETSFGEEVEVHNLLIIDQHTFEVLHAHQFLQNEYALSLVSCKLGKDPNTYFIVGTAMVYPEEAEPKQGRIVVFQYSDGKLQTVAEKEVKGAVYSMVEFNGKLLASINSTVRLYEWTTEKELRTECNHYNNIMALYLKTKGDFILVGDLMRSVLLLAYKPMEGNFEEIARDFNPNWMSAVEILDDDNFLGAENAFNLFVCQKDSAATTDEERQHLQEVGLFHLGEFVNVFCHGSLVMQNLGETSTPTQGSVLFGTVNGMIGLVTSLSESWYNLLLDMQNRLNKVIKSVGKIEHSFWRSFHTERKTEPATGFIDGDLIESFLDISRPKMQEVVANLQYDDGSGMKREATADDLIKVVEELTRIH

## Cn1c(NC2CCC(=O)NC2=O)nc2ccccc21 (stereo unspecified)
  Kd: > 100 µM
